What all share (type): functional
The subject of assay [1] is Mus musculus. The assay can be described thus: Antiinflammatory activity in CD1 mouse assessed as inhibition of croton oil-induced ear edema at 1 umol administered topically per cm'2 of ear relative to control.
The test system of assay [2] is Mus musculus. The experiment in a line: Antiinflammatory activity in CD1 mouse assessed as inhibition of croton oil-induced ear edema at 0.3 umol administered topically per cm'2 of ear relative to control.
In assay [3] the test system is Mus musculus. The experiment in a line: Antiinflammatory activity in CD1 mouse assessed as inhibition of croton oil-induced ear edema per cm'2 administered topically.
Assay [4] deals with Mus musculus. The assay can be described thus: Antiinflammatory activity in CD1 mouse assessed as inhibition of croton oil-induced ear edema at 0.1 umol administered topically per cm'2 of ear relative to control.

Consider `COc1ccc2c(c1)c(CC(=O)O)c(C)n2C(=O)c1ccc(Cl)cc1` [INDOMETHACIN], for which the “inhibition (INH)” value in assay [1] was 87%; in assay [2], 62%; in assay [4], 26%. Further, in assay [3], the ID50 was determined as 0.23 µmol.

Consider `CC(C)=CCOc1ccc(/C=C/C(=O)O)cc1`, for which the “inhibition (INH)” value in assay [1] amounted to 67%; in assay [2], 30%; in assay [4], 13%. The ID50 in assay [3] is 0.5 µmol.

On to `COc1cc(/C=C/C(=O)O)ccc1OCC=C(C)C` [BOROPINIC ACID], for which the “inhibition (INH)” value in assay [1] was 55%; in assay [2] it was 36%; in assay [4], 12%. Also, the ID50 in assay [3] turned out to be 0.72 µmol.

Regarding `CC(C)=CCOc1ccc(/C=C/C(=O)O)cc1Br`, the “inhibition (INH)” value in assay [2] turned out to be 19%.

On to `CC(C)=CCOc1ccc(/C=C/C(=O)O)cc1C`, for which the “inhibition (INH)” value in assay [2] is 23%.

With `CC(C)=CCOc1ccc(/C=C/C(=O)O)cc1[N+](=O)[O-]`, the results for the “inhibition (INH)” value in assay [1], in assay [2] and in assay [4] were 91%, 68% and 33%, respectively. The ID50 in assay [3] was found to be 0.18 µmol.

In the case of `CC(C)=CCOc1ccc(/C=C/C(=O)O)cc1Cl`, the “inhibition (INH)” value in assay [1] came to 91%; in assay [2] it was 49%; in assay [4], 25%. The ID50 in assay [3] was 0.26 µmol.

As to `CC(C)=CCOc1ccc(/C=C/C(=O)O)cc1I`, the figures for the “inhibition (INH)” value in assay [1], in assay [2] and in assay [4] were 88%, 67% and 30%, respectively. The ID50 in assay [3] stood at 0.2 µmol.

Regarding `CC(C)=CCOc1ccc(/C=C/C(=O)O)cc1F`, the “inhibition (INH)” value in assay [2] is recorded as 39%.

With `CC(C)=CCOc1ccc(/C=C/C(=O)O)cc1N`, the results for the “inhibition (INH)” value in assay [1], in assay [2] and in assay [4] were 81%, 43% and 22%, respectively. Also, the ID50 in assay [3] is 0.33 µmol.

Regarding `CC(Cc1ccc(O)c(O)c1)C(C)Cc1ccc(O)c(O)c1` (stereo not given) [NORDIHYDROGUAIARETIC ACID], the “inhibition (INH)” value in assay [1] was determined as 65%; in assay [2], 33%; in assay [4] it was 19%. Also, the ID50 in assay [3] was 0.54 µmol.

The values are drawn from ChEMBL document CHEMBL1641434, “Topical anti-inflammatory activity of boropinic acid and its natural and semi-synthetic derivatives” (2011).
